We go through three compounds from US20030170181A1, “Method for preventing abuse of methylphenidate” (priority 1999, published 2003).

Series [1] in a line: Pharmacokinetics of d-threo and l-threo methylphenidate in plasma after oral administration of 40 mg immediate release racemic methylphenidate. Type of series: in vivo, human. The note with it: for fraction metabolized / bioavailability: after oral administration of commercially available racemic methylphenidate; for Cmax / Tmax / t½ / bioavailability / half-life: plasma; for Cmax / Tmax / t½ / half-life: oral 40 mg immediate release methylphenidate; for bioavailability: read-out: bioavailability in blood plasma; for half-life: read-out: t½ (converted).

Series [2] can be described thus: Pharmacokinetics of d-threo and l-threo methylphenidate in plasma after intravenous administration of 10 mg racemic methylphenidate. Conditions: for CL / MRT / Vdss / t½ / clearance / Vd / half-life: plasma, IV 10 mg racemic methylphenidate; for clearance / Vd / half-life: male, human, iv, 10 mg; for clearance: CL; for Vd: Vdss; for half-life: t½; for plasma levels of d-MPH versus l-MPH: methylphenidate administered intravenously, up to 1.5 hours post dose. How it is done:
Eleven healthy male subjects were administered 10 mg of racemic methylphenidate (Ritalin®) by intravenous (IV) administration and 40 mg of racemic methylphenidate (Ritalin®) by immediate release (IR) oral administration.

The test system of series [3] is males with ADHD. Kind of series: Combined pharmacokinetic/pharmacodynamic study of dose regimens of methylphenidate on activity and attention (OPTAX measures). Type of series: in vivo, human. Conditions: pulsatile dosing schedule 2 (PD2): 0.4, 0.4, 0.2 mg/kg at 0, 240, 480 min; compared with CD1, CD2, PD1; twelve-hour day. From the text:
Combined pharmacokinetic/pharmacodynamic studies of methylphenidate using different dosage regiments were designed to determine if regimens that produced stable or rising methylphenidate levels had benefits, or if fluctuating levels were necessary to prevent rapid development of tolerance (tachyphylaxis). The experimental subjects were a group of seventy-three males with ADHD recruited from the general population through a newspaper advertisement. Each subject was between the ages of 9 to 12, was objectively hyperactive, and responded positively to methylphenidate. Hyperactivity levels of each boy were determined through OPTAX™ measures, a clinical tool that provides high-resolution assessment of movement patterns during performance of a novel, monotonous, yet challenging cognitive vigilance task. Through the OPTAX™ measures, it is possible to identify differences between drug regimens based solely on dosage schedule, while holding total daily dose constant. Of the 73 original boys, thirteen were excluded based on lack of symptoms by parent interview or on lack of objective hyperactivity greater than 25% over controls on OPTAX™ measures. […]
The double blind parallel group study evaluated the efficacy of methylphenidate for the treatment of ADHD when given in a near continuous amount throughout the day and in pulsatile or fluctuating doses throughout the day. […]

The conditions of series [4]: cited from earlier work.
The mark [5] stands for this setting: individual subjects 1-11, listed as d.
Setting [6] is: male, human, po, 40 mg, mean of 11 subjects, read-out: Cmax.
Setting [7] is: male, human, po, 40 mg, mean of 11 subjects, read-out: Tmax.
Where [8] appears, read: male, human, po, 40 mg, mean of 11 subjects.
[9] abbreviates: racemic d,l-threo methylphenidate.
[10] abbreviates: individual subjects 1-11, listed as l.

“And” between values parts separate entries of the source, which are not always exact repeats. Identical values can stand only once. Like-named read-outs stand apart in the source and are kept apart here.

For `COC(=O)[C@H](c1ccccc1)[C@H]1CCCCN1` [d-MPH, d-threo-methylphenidate], the fraction metabolized result in series [1] was “approximately 78%”. Further, in series [1] (setting [5]), the Cmax (commonly the peak of the concentration-time curve) is 12.42 ng/mL and 16.49 ng/mL and 13.81 ng/mL and 22.02 ng/mL and 18.52 ng/mL and 24.54 ng/mL and 22.48 ng/mL and 18.25 ng/mL and 22.91 ng/mL and 13.24 ng/mL; the Tmax (in general, the time from dosing to the highest level) was 2.0 h and 3.0 h and 1.0 h and 4.0 h; the t½ (in general, how long it takes for the measured level to halve) was 5.44 h and 6.67 h and 4.44 h and 5.83 h and 4.14 h and 6.22 h and 4.81 h and 6.31 h and 6.09 h and 5.29 h and 8.38 h. Moreover, the bioavailability – broadly, the share of a dose that reaches the circulation, judged against a reference dose that is usually intravenous – in series [1] (male, human, 40 mg) is around 22%. Also, in series [1] (male, human, po, 40 mg, individual subjects 1-11, read-out: Cmax), the peak concentration (Cmax) worked out at 14.7 ng/mL. Moreover, in series [1] (setting [6]), the Cmax amounted to 18.1 ng/mL. The Tmax in series [1] (setting [7]) stood at 2.4 h. Moreover, in series [1] (setting [8]), the half-life is 5.69 h. In series [2] (setting [5]), the CL was 0.32 L/kg · h^−1 and 0.45 L/kg · h^−1 and 0.33 L/kg · h^−1 and 0.28 L/kg · h^−1 and 0.53 L/kg · h^−1 and 0.20 L/kg · h^−1 and 0.63 L/kg · h^−1 and 0.34 L/kg · h^−1 and 0.44 L/kg · h^−1 and 0.41 L/kg · h^−1 and 0.42 L/kg · h^−1; the MRT is 6.49 H and 4.63 H and 5.23 H and 5.75 H and 6.25 H and 4.68 H and 6.79 H and 5.86 H and 7.90 H and 9.44 H and 8.80 H; the Vdss – broadly, a proportionality between amount in the body and measured concentration, not a real space – is 2.09 L/kg and 2.10 L/kg and 1.73 L/kg and 1.59 L/kg and 3.28 L/kg and 0.92 L/kg and 4.27 L/kg and 2.01 L/kg and 3.51 L/kg and 3.91 L/kg and 3.68 L/kg; the t½ was 4.88 h and 4.81 h and 4.17 h and 5.38 h and 6.65 h and 3.97 h and 6.93 h and 4.65 h and 6.80 h and 8.68 h and 8.62 h. In addition, in series [2] (mean of 11 subjects), the clearance – broadly, the volume of plasma or blood freed of the substance per unit of time – is 6.67 mL/min/kg; the Vd (usually a proportionality between amount in the body and measured concentration, not a real space) was 2.65 L/kg; the half-life was 5.96 h; the MRT is on record as 6.53 H. In addition, the “plasma levels of d-MPH versus l-MPH” value in series [2] is “approximately equivalent plasma levels”.

In the case of `COC(=O)C(c1ccccc1)C1CCCCN1` (racemic) [methylphenidate, α-phenyl-2-piperidine-acetic acid methyl ester], in series [3], the improvement in activity result is “most consistent improvement” and the improvement in attention entry is reported as “most consistent improvement”. For the same compound, the “time of maximum drug concentration” value in series [4] (after oral administration) is given as “about two”. Besides, in series [4] (setting [9]), the duration of action entry was “one to four” and the pharmacokinetic elimination half-life result is recorded as “two to three”.

As for `COC(=O)[C@@H](c1ccccc1)[C@@H]1CCCCN1` [l-MPH, l-threo methylphenidate], the fraction metabolized result in series [1] was “approximately 95%”. Further, in series [1] (setting [10]), the Cmax was 4.23 ng/mL and 2.49 ng/mL and 3.26 ng/mL and 1.59 ng/mL and 3.61 ng/mL and 1.49 ng/mL and 2.88 ng/mL and 4.01 ng/mL and 2.27 ng/mL and 3.03 ng/mL and 3.95 ng/mL; the Tmax is 2.0 h and 3.0 h and 1.0 h and 1.5 h and 4.0 h; the t½ is 4.61 h and 2.48 h and 4.06 h and 3.80 h and 3.09 h and 3.91 h and 4.24 h and 3.84 h and 3.55 h and 4.23 h and 5.41 h. Also, in series [1] (male, human, 40 mg), the bioavailability amounted to 5%. Further, the Cmax in series [1] (setting [6]) was found to be 2.98 ng/mL. Further, in series [1] (setting [7]), the Tmax worked out at 2.2 h. Further, in series [1] (setting [8]), the half-life was 3.93 h. In addition, in series [2] (setting [10]), the CL is 0.56 L/kg · h^−1 and 0.82 L/kg · h^−1 and 0.59 L/kg · h^−1 and 0.41 L/kg · h^−1 and 1.05 L/kg · h^−1 and 0.26 L/kg · h^−1 and 0.89 L/kg · h^−1 and 0.49 L/kg · h^−1 and 0.78 L/kg · h^−1 and 1.11 L/kg · h^−1 and 1.02 L/kg · h^−1; the MRT was 2.28 H and 2.02 H and 2.37 H and 2.63 H and 2.12 H and 2.50 H and 3.34 H and 1.42 H and 3.03 H and 2.84 H; the Vdss is 1.27 L/kg and 1.86 L/kg and 1.19 L/kg and 0.97 L/kg and 2.77 L/kg and 0.56 L/kg and 2.23 L/kg and 1.63 L/kg and 1.03 L/kg and 3.36 L/kg and 2.89 L/kg; the t½ was 2.08 h and 4.19 h and 2.63 h and 3.57 h and 5.11 h and 2.93 h and 2.21 h and 3.47 h and 4.06 h and 5.23 h. In series [2] (mean of 11 subjects), this compound gave a clearance of 12.2 mL/min/kg, a Vd of 1.8 L/kg, a half-life of 3.61 h and an MRT of 2.44 H. Besides, the “plasma levels of d-MPH versus l-MPH” value in series [2] is given as “approximately equivalent plasma levels”.
